Experimental data published in the supplement of paper PMC4862054.

What was measured:
Settings in all cases: 72 h
HCC1599 [1] = system: HCC1599
Procedure, shortened: (§1)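 Two sequential readouts followed a 72 h incubation of breast cancer cell lines with compound at 5 concentrations in 10-fold steps over a compound-specific 10,000-fold range: CellTox Green fluorescence (485/520 nm) for cell death, then CellTiter-Glo luminescence, after 10 min at room temperature, for viability. Each plate was normalised to 0.1 % DMSO and a positive kill control. Dose-response curves were fitted for EC50, censored at the top concentration.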

CAL-148 [2] = system: CAL-148
Procedure, shortened: (§2)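 The reported EC50 was fitted from percent-inhibition dose-response curves and censored at the highest concentration. Breast cancer cell lines (20 µl suspension) were added to 384-well plates containing compound in 5 µl medium and incubated 72 h, and viability was read with 2.5 µl CellTiter-Blue over 2 h at 37 °C at 560/590 nm. Each plate was normalised to vehicle and a positive kill control and checked by Z'-factor, and rows with zero drug sensitivity score were dropped.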

CAL-51 = system: CAL-51
Procedure, shortened: as §2

CAL-85-1 [3] = system: CAL-85-1
Procedure, shortened: as §2

DU-4475 [4] = system: DU-4475
Procedure, shortened: as §2

MDA-MB-453 [5] = system: MDA-MB-453
Procedure, shortened: as §2

BT-549 [6] = system: BT-549
Procedure, shortened: as §2

CAL-120 [7] = system: CAL-120
Procedure, shortened: as §2

HCC1143 [8] = system: HCC1143
Procedure, shortened: as §2

HCC1599 [9] = system: HCC1599; remark: listed apart in the source
Procedure, shortened: as §2

HCC1937 [10] = system: HCC1937
Procedure, shortened: as §2

Hs578T [11] = system: Hs578T
Procedure, shortened: as §2

MDA-MB-231 [12] = system: MDA-MB-231
Procedure, shortened: as §2

MDA-MB-436 [13] = system: MDA-MB-436
Procedure, shortened: as §2

MDA-MB-468 [14] = system: MDA-MB-468
Procedure, shortened: as §2

SK-BR-3 = system: SK-BR-3
Procedure, shortened: as §2

CAL-148 [15] = system: CAL-148; remark: listed apart in the source
Procedure, shortened: as §1

CAL-85-1 [16] = system: CAL-85-1; remark: listed apart in the source
Procedure, shortened: as §1

MDA-MB-468 [17] = system: MDA-MB-468; remark: listed apart in the source
Procedure, shortened: as §1

HDQ-P1 [18] = system: HDQ-P1
Procedure, shortened: as §2

MFM-223 [19] = system: MFM-223
Procedure, shortened: as §2

HCC1143 [20] = system: HCC1143; remark: listed apart in the source
Procedure, shortened: as §1

MDA-MB-231 [21] = system: MDA-MB-231; remark: listed apart in the source
Procedure, shortened: as §1

CAL-120 [22] = system: CAL-120; remark: listed apart in the source
Procedure, shortened: as §1

MDA-MB-436 [23] = system: MDA-MB-436; remark: listed apart in the source
Procedure, shortened: as §1

BT-474 [24] = system: BT-474
Procedure, shortened: as §2

BT-549 [25] = system: BT-549; remark: listed apart in the source
Procedure, shortened: as §1

HCC1937 [26] = system: HCC1937; remark: listed apart in the source
Procedure, shortened: as §1

HDQ-P1 [27] = system: HDQ-P1; remark: listed apart in the source
Procedure, shortened: as §1

Hs578T [28] = system: Hs578T; remark: listed apart in the source
Procedure, shortened: as §1

MCF-10A = system: MCF-10A
Procedure, shortened: as §1

MFM-223 [29] = system: MFM-223; remark: listed apart in the source
Procedure, shortened: as §1

BT-474 [30] = system: BT-474; remark: listed apart in the source
Procedure, shortened: as §1

HCC1599 [31] = system: HCC1599; remark: listed apart in the source
Procedure, shortened: as §1

DU-4475 [32] = system: DU-4475; remark: listed apart in the source
Procedure, shortened: as §1

MDA-MB-453 [33] = system: MDA-MB-453; remark: listed apart in the source
Procedure, shortened: as §1

SMILES	EC50, CellTiter-Glo (HCC1599 [1]) [nM]	EC50, CellTiter-Blue viability (CAL-148 [2]) [nM]	EC50, CellTiter-Blue viability (CAL-51) [nM]	EC50, CellTiter-Blue viability (CAL-85-1 [3]) [nM]	EC50, CellTiter-Blue viability (DU-4475 [4]) [nM]	EC50, CellTiter-Blue viability (MDA-MB-453 [5]) [nM]	EC50, CellTiter-Blue viability (BT-549 [6]) [nM]	EC50, CellTiter-Blue viability (CAL-120 [7]) [nM]	EC50, CellTiter-Blue viability (HCC1937 [10]) [nM]	EC50, CellTiter-Blue viability (Hs578T [11]) [nM]	EC50, CellTiter-Blue viability (MDA-MB-231 [12]) [nM]	EC50, CellTiter-Blue viability (MDA-MB-436 [13]) [nM]	EC50, CellTiter-Blue viability (MDA-MB-468 [14]) [nM]	EC50, CellTiter-Blue viability (SK-BR-3) [nM]	EC50, CellTox Green (CAL-148 [15]) [nM]	EC50, CellTox Green (CAL-85-1 [16]) [nM]	EC50, CellTox Green (MDA-MB-468 [17]) [nM]	EC50, CellTiter-Blue viability (HDQ-P1 [18]) [nM]	EC50, CellTiter-Blue viability (MFM-223 [19]) [nM]	EC50, CellTox Green (MDA-MB-231 [21]) [nM]	other results
Nc1nc(Cl)nc2c1ncn2[C@@H]1O[C@H](CO)[C@@H](O)[C@@H]1F [Clofarabine]	1740	563	870	152	472	484	340	116	180	149	20.5	104	453	90.6	169	1420	> 10000	–	–	–	EC50, CellTiter-Blue viability (HCC1143 [8]): 118 nM; EC50, CellTiter-Blue viability (HCC1599 [9]): 2220 nM
COc1cc2c(Oc3ccc(NC(=O)C4(C(=O)Nc5ccc(F)cc5)CC4)cc3F)ccnc2cc1OCCCN1CCOCC1 [Foretinib]	–	675	473	–	748	–	–	787	–	756	–	13.8	–	> 1000	712	–	374	157	62.5	129	EC50, CellTox Green (HCC1143 [20]): 693 nM
C[C@]12C=CC(=O)C=C1CC[C@@H]1[C@@H]2C(=O)C[C@@]2(C)[C@H]1CC[C@]2(O)C(=O)CO [Prednisone]	–	–	–	–	–	–	–	–	–	–	–	–	–	–	–	–	–	–	–	–	EC50, CellTox Green (CAL-120 [22]): 1000 nM
O=C(c1cc(Cc2n[nH]c(=O)c3ccccc23)ccc1F)N1CCN(C(=O)C2CC2)CC1 [Olaparib]	–	–	6590	–	418	–	–	–	116	–	–	–	1610	–	–	–	–	–	–	–	EC50, CellTox Green (MDA-MB-436 [23]): 498 nM
CC[C@@H]1C(=O)N(C)c2cnc(Nc3ccc(C(=O)N[C@H]4CC[C@H](N5CCN(CC6CC6)CC5)CC4)cc3OC)nc2N1C(C)C [Volasertib]	64.5	11.6	24.8	10.4	24.7	6.23	23.5	5.21	11.1	36.8	20.4	–	13.7	8.58	–	3.2	–	379	1.6	3.18	EC50, CellTiter-Blue viability (BT-474 [24]): > 1000 nM; EC50, CellTiter-Blue viability (HCC1143 [8]): 13.8 nM; EC50, CellTox Green (BT-549 [25]): 68.5 nM; EC50, CellTox Green (HCC1143 [20]): 49.1 nM; EC50, CellTox Green (HCC1937 [26]): 0.49 nM; EC50, CellTox Green (HDQ-P1 [27]): 17.9 nM; EC50, CellTox Green (Hs578T [28]): 120 nM; EC50, CellTox Green (MCF-10A): 2.53 nM; EC50, CellTox Green (MFM-223 [29]): 0.83 nM
CCc1cnn2c(NCc3ccc[n+]([O-])c3)cc(N3CCCC[C@H]3CCO)nc12 [Dinaciclib]	14.8	–	–	–	–	–	–	–	–	–	–	–	–	–	28.3	22	17.1	–	–	8.07	EC50, CellTox Green (BT-474 [30]): 13.2 nM; EC50, CellTox Green (HCC1599 [31]): 14.1 nM; EC50, CellTox Green (HDQ-P1 [27]): 8.27 nM; EC50, CellTox Green (Hs578T [28]): 26.4 nM; EC50, CellTox Green (MCF-10A): 77.4 nM; EC50, CellTox Green (MFM-223 [29]): 22 nM
CN1CCc2c(c3ccccc3n2Cc2ccc(C(=O)NO)cc2)C1 [Tubastatin A]	–	–	–	–	–	–	–	–	–	–	–	–	–	–	–	–	–	–	–	–	EC50, CellTox Green (BT-474 [30]): > 10000 nM; EC50, CellTox Green (HCC1143 [20]): 297 nM
CCN(CC)CCOc1ccc(C(=C(Cl)c2ccccc2)c2ccccc2)cc1 [Clomifene]	2830	–	–	9270	7320	4990	3250	4600	9530	–	2830	6850	3630	–	–	6280	–	9480	6930	1990	EC50, CellTiter-Blue viability (BT-474 [24]): 5530 nM; EC50, CellTox Green (BT-474 [30]): 3470 nM; EC50, CellTox Green (DU-4475 [32]): 5820 nM; EC50, CellTox Green (HCC1599 [31]): 9780 nM; EC50, CellTox Green (HCC1937 [26]): 1760 nM; EC50, CellTox Green (Hs578T [28]): 2260 nM; EC50, CellTox Green (MCF-10A): 1010 nM; EC50, CellTox Green (MDA-MB-453 [33]): 5670 nM; EC50, CellTox Green (MFM-223 [29]): 522 nM
